In general, IC50 refers to the concentration needed to halve the response being measured. High values mean weaker potency in that assay, low ones greater potency in that assay.

What all share (type): cell-based
The subject of assay [1] is Hsp90 clients in BT474 cell line. As to the kind of experiment: Western blotting of Hsp90 clients, BT474. As to conditions: BT474, 10 μM, 72 hours. How it is done: (§1) To perform western blotting, BT-474 and JIMT-1 cell lines were treated with control (DMSO), compound 18c, and compound 11k at concentrations of 10 μM each for 72 hours, and then lysed in lysis buffer (30 mM NaCl, 0.5% Triton X-100, 50 mM Tris-HCl; pH 7.4) containing phosphatase and protease inhibitors. The proteins present in the supernatant were harvested. The protein concentration was measured using a Bradford protein assay kit, and 30 μg of protein was taken equally from each experimental group. These proteins were electrophoresed on SDS-Polyacrylamide gels (8-15%), and electrically transferred to a nitrocellulose membrane. The membrane was reacted with primary antibodies [pro PARP (1:1000), cleaved PARP (1:2000), cleaved caspase-3 (1:1000), cleaved caspase-7 (1:1000), β-actin (1:5000)] diluted in 5% bovine serum albumin (BSA) at 4° C. for 24 hours, followed by a secondary antibody, horseradish peroxidase (HRP)-conjugated rabbit IgG (1:3000) for 2 hours at room temperature. The signal intensity of the above proteins was checked by color development using an Enhanced Chemiluminescence Kit and x-ray film.
(§2) Western blotting was used to investigate whether Hsp90 inhibitors, compound 18c (formula 1-16) and compound 11k (formula 1-7), could downregulate the expression and activity (phosphorylation) of HER2 and HER3, which are representative clients of Hsp90, in BT474 and JIMT-1 cell lines. The expression of Akt, MEK, ERK, Bcl-2, Cyclin D1, and Survivin, which are key factors for cell survival as Hsp90 clients, was also investigated. The western blotting was performed by the method that was used in Experimental Example 2.3.
(§3) The BT474 and JIMT-1 cell lines were treated with compound 18c and compound 11k at a concentration of 10 μM for 72 hours.
On the technique in general: In western blotting, separated proteins are transferred to a membrane and probed.

Another assay relates to MDA-MB-231 cell line. The assay can be described thus: MTS cell viability assay in MDA-MB-231 cell line. As to conditions: Homo sapiens, MDA-MB-231, 72 hours. The procedure:
A HER2 positive breast cancer (HER2+BC) cell line, JIMT-1 (cell seeding numbers: 1.0 (JIMT)×10^4 cells/wells (confluency≤30%)) and a triple-negative breast cancer (TNBC) cell line, MDA-MB-231 (cell seeding numbers: 1.0 (M231)×10^4 cells/wells (confluency≤30%) were used in the experiment.
The above cell lines were cultured in Dulbecco's Modified Eagle's Medium (DMEM) or Eagle's minimum Essential Medium (MEM) each containing 10% fetal bovine serum (FBS), streptomycin-penicillin (100 U/ml), and Fungizone (0.625 μg/ml), respectively under 5% CO2, 37° C. environment.
The JIMT-1 cell line and MDA-MB-231 cell line were treated with the indazole derivatives (formulas 1-1 to 1-53) of the present disclosure at a concentration of 10 μM each for 72 hours, and then cell viability was measured using the MTS assay technique. The control group was treated with DMSO as an untreated group (0 μM) of the indazole derivative of the present disclosure.
Specifically, cells were attached to 96 well plates for 24 hours, and then treated with the indazole derivatives for 72 hours. Thereafter, the cells were chromogenized with MTS for 4 hours, and the absorbance was measured at 490 nm using a Spectramax Plus384 microplate analyzer. The significance between the control group and the experimental group was verified using an unpaired Students t-test (*p<0.01; DMSO control vs indazole series).
HER2-positive breast cancer cell lines, BT474 (cell seeding numbers: 2.0 (JIMT)×10^4 cells/wells (confluency≤30%)) sensitive to trastuzumab, and JIMT-1 (cell seeding numbers: 1.0 (JIMT)×10^4 cells/wells (confluency≤30%)) resistant to trastuzumab, and a triple-negative breast cancer cell line, MDA-MB-231 (cell seeding numbers: 1.0 (M231)×10^4 cells/wells (confluency≤30%)) were used.
The BT474, JIMT-1, and MDA-MB-231 cell lines were treated with compound 18c (formula 1-16) and compound 11k (formula 1-7) at concentrations of 0 (DMSO), 0.1, 0.5, 1, 5, 10, and 20 μM, respectively, for 72 hours, and then cell viability was measured using the MTS assay technique as explained by the description of Experimental Example 1. The cell viability experiment was performed independently three times, and the significance was verified by a One-Way Anova, Bonferroni post-hoc test (*p<0.01; DMSO control vs. compound 18c or compound 11k).
In addition, the JIMT-1 and MDA-MB-231 cell lines were treated with compound 11m (formula 1-9), 11n (formula 1-10) and compound 12k (formula 1-13) at concentrations of 0 (DMSO), 0.1, 1, 5, 10, and 20 μM, respectively, for 72 hours, and then cell viability was measured.
Meanwhile, triple-negative breast cancer cell lines MDA-MB-231 and BT549, and a mouse breast cancer cell line 4T1 were treated with compound 38 (formula 1-30) at concentrations of 0 (DMSO), 0.1, 0.5, 1, 2, 5, 10, and 20 μM for 72 hours, and then cell viability was measured.
The indazole derivative of the present disclosure was compared with the benzopyran derivative of the related art (KR 10-2304532) in terms of cell viability of the BT474, JIMT-1, and MDA-MB-231 cell lines (Table 1). In this case, the cell lines were treated with the benzopyran derivative at a concentration of 10 μM for 72 hours and the cell lines were treated with the indazole derivative at a concentration of 10 μM for 72 hours, and then the cell viability was measured.

The next assay deals with JIMT-1 cell line. The assay can be described thus: MTS cell viability assay in JIMT-1 cell line. As to conditions: Homo sapiens, JIMT-1, 72 hours. The procedure: The control group was treated with DMSO as an untreated group (0 μM) of the indazole derivative of the present disclosure.
Specifically, cells were attached to 96 well plates for 24 hours, and then treated with the indazole derivatives for 72 hours. Thereafter, the cells were chromogenized with MTS for 4 hours, and the absorbance was measured at 490 nm using a Spectramax Plus384 microplate analyzer.
HER2 positive breast cancer (HER2+BC) cell lines, BT474 (cell seeding numbers: 2.4 (BT474)×10^4 cells/wells (confluency≥50%)) sensitive to trastuzumab and JIMT-1 (cell seeding numbers: 1.0 (JIMT-1)×10^4 cells/wells (confluency>30%)) resistant to trastuzumab were used in the experiment.
In this case, the cell lines were treated with the benzopyran derivative at a concentration of 10 μM for 72 hours and the cell lines were treated with the indazole derivative at a concentration of 10 μM for 72 hours, and then the cell viability was measured.
(Tetrazolium dyes change colour on reduction, which living cells bring about.)

The subject of assay [2] is Hsp90 clients in JIMT-1 cell line. The assay can be described thus: Western blotting of Hsp90 clients, JIMT-1. As to conditions: JIMT-1, 10 μM, 72 hours. How it is done: as §1, §2, §3
The subject of assay [3] is cleaved caspase-3, cleaved caspase-7, PARP in BT474 cell line. As to the kind of experiment: Western blotting of apoptosis-related proteins, BT474. As to conditions: BT474, 10 μM, 72 hours; for amounts of cleaved caspase-3 and cleaved caspase-7: compared to the control group. The procedure: To investigate the mechanism of cell death by compound 18c (formula 1-16) and compound 11k (formula 1-7), the activation of apoptosis-related factor caspase family members was determined through western blotting.
as §1

`COCCn1nc(NC(=O)c2ccc3c(c2OC)C=CC(C)(C)O3)c2ccccc21` [compound 18c, 5-Methoxy-N-(1-(2-methoxyethyl)-1H-indazol-3-yl)-2,2-dimethyl-2H-chromene-6-carboxamide]: in assay [1], the “expression of HER2 and HER3” value was “decreased”; the “expression of activated forms phospho-HER2 and phospho-HER3” value is reported as “significantly reduced”; the “expression of cell proliferation factors Akt, MEK, ERK, Bcl-2, Cyclin D1, and Survivin” value (shortened to “expression … and Survivin”) was “inhibited the expression”. This molecule came in with an IC50 with MDA-MB-231 cell line of 6.84 µM. The same molecule gave a half-maximal inhibitory concentration (IC50) in the assay with JIMT-1 cell line of 4.6 µM. Moreover, in assay [2], the “expression of HER2 and HER3” value was “decreased”; the “expression of activated forms phospho-HER2 and phospho-HER3” value was “significantly reduced”; the “expression … and Survivin” value is listed as “inhibited the expression”. Moreover, in assay [3], the “cleaved-PARP (89 kDa)” value is “increase”; the “amounts of cleaved caspase-3 and cleaved caspase-7” value is on record as “significantly increased”.
With `COc1c(C(=O)Nc2ccc3c(C)nn(CCC4CCN(C)CC4)c3c2)ccc2c1C=CC(C)(C)O2` [compound 11k, 5-Methoxy-2,2-dimethyl-N-(3-methyl-1-(2-(1-methylpiperidin-4-yl)ethyl)-1H-indazol-6-yl)-2H-chromene-6-carboxamide], in assay [1], the “expression of HER2 and HER3” value is reported as “decreased”; the “expression of activated forms phospho-HER2 and phospho-HER3” value is reported as “significantly reduced”; the “expression … and Survivin” value is recorded as “inhibited the expression”. The IC50 with MDA-MB-231 cell line was 2.69 µM. Besides, the IC50 in the assay with JIMT-1 cell line worked out at 4.06 µM. In assay [2], the “expression of HER2 and HER3” value is given as “decreased”; the “expression of activated forms phospho-HER2 and phospho-HER3” value is “significantly reduced”; the “expression … and Survivin” value was “inhibited the expression”. Also, in assay [3], the “cleaved-PARP (89 kDa)” value is recorded as “increase”; the “amounts of cleaved caspase-3 and cleaved caspase-7” value is “significantly increased”.

The values are drawn from patent US20260167629A1, “NOVEL INDAZOLE DERIVATIVE OR PHARMACEUTICALLY ACCEPTABLE SALT THEREOF, AND USE THEREOF” (KOREA UNIVERSITY RESEARCH AND BUSINESS FOUNDATION, priority 2022, published 2026).
